# Laboratory results taken from patent US20150126553A1, “BICYCLIC HETEROCYCLES CAPABLE OF MODULATING T-CELL RESPONSES, AND METHODS OF USING SAME” (Nogra Pharma Limited, priority 2012, published 2015).
# Columns and labels:
# [1] = tested on: kinase Zap70; test: Western blot of T cell receptor related signaling, phospho-Zap70; type: cell-based, human; conditions: pretreated 10 minutes, stimulated 10 minutes with PHA; FIG. 2A
# Protocol: (§1) Lymphocytes were seeded in a 6 well plate (1.0·10^7/well), pretreated for 10 minutes with S3.1, S3.4 or dexamethasone and stimulated for 10 minutes with PHA. The experiment was stopped by adding a large volume of ice cold PBS to the cells. The suspension was transferred to a tube, briefly spinned down in a centrifuge and the supernatant removed. The pellet was lysed by adding cold lysisbuffer (0.1% NP40, 50 mM TrisHCl, 1 mM EDTA, 1 mM EGTA, 150 mM NaCl, 200 μM Na3VO4, 10 mM NaF and protease inhibitors) and incubating 20 minutes on ice.
# (§2) To investigate the cell signaling events that are affected by treatment with S3.1 and S3.4, lysates were supplemented with sample buffer (188 mM Tris-Cl (pH 6.8), 3% SDS, 30% glycerol, 0.01% bromophenol blue, 15% β-mercaptoethanol), heated to 95° C. for 5 minutes, cooled on ice and sonicated. Samples were then run on 10% SDS-PAGE gel, blotted to PVDF membrane and incubated with antibodies for phospho-Zap70 (Cell Signaling Technology (Beverly, Mass.)) and phospho-LAT (Cell Signaling Technology (Beverly, Mass.)). To show equal loading of the samples the blot was incubated with an antibody directed against beta-actin (Santa Cruz Biotechnology (Heidelberg, Germany)).
# [2] = tested on: scaffolding protein LAT; test: Western blot of T cell receptor related signaling, phospho-LAT; type: cell-based, human; conditions: pretreated 10 minutes, stimulated 10 minutes with PHA; FIG. 2A
# Protocol: as §1, §2
# [3] = tested on: Human peripheral blood lymphocytes (PBLs); test: Inhibition of T lymphocyte proliferation (PHA stimulation, tritiated thymidine); type: cell-based; conditions: PHA stimulated lymphocytes
# Protocol: Human peripheral blood lymphocytes (PBLs) were isolated from whole blood of healthy volunteers by Ficoll-Isopaque density gradient centrifugation. After washing, monocytes were separated from lymphocytes by percoll density gradient centrifugation. The lymphocytes were cultured in IMDM (Gibco, Verviers, Belgium) supplemented with 10% heat inactivated fetal calf serum.
# Cells were seeded in 96 well plates and stimulated with PHA (10 μg/ml) and corresponding concentration of pharmaceuticals. After 24 hours tritiated thymidine was added to each well and left overnight. Next morning proliferation was measured by microbeta counter. Graphs were plotted with the untreated condition set to a hundred percent.
smiles,measurement,setting,value
c1ccc(CN2CCCC(c3ccnc(SCCN4CCCC4)n3)C2)cc1 (stereo not drawn) [Compound S3.4],Zap70 phosphorylation level compared to a stimulated untreated control,[1],lower phosphorylation levels
same,LAT phosphorylation level compared to a stimulated untreated control,[2],lower phosphorylation levels
same,effect on T lymphocyte proliferation,[3],antiproliferative effect
